As a reminder, the Ki is the dissociation constant of the complex between target and ligand, obtained from inhibition or displacement.

The values that follow come from patent US10766884B2 (Pfizer Inc., priority 2018, dated 2020).

The target in assay [1] is CDK6/Cyclin D3 (Homo sapiens (Human), UniProt Q00534). The experiment in a line: CDK6/Cyclin D3 mobility shift assay. It counts as biochemical. Particulars: activated CDK6/Cyclin D3, 3.5 mM ATP, Morrison fit; read-out: CDK6_D3 Ki. The procedure:
The purpose of the CDK6/Cyclin D3 assay is to evaluate the inhibition (% inhibition, Kiapp and Ki values) in the presence of small molecule inhibitors by using a fluorescence based microfluidic mobility shift assay. […] The mobility shift assay electrophoretically separates the fluorescently labeled peptides (substrate and phosphorylated product) following the kinase reaction. Both substrate and product are measured and the ratio of these values is used to generate % conversion of substrate to product by the LabChip EZ Reader.
The reaction was stopped after 95 minutes by the addition of 50 μL of 30 mM EDTA. Ki determinations were made from a plot of the fractional velocity as a function of inhibitor concentration fit to the Morrison equation with the enzyme concentration as a variable.
(§1) For CDK4 and CDK6 mobility shift assays, see also Morrison, J. F. (1969) Kinetics of the reversible inhibition of enzyme-catalysed reactions by tight-binding inhibitors, Biochimica et biophysica acta 185, 269-286; and Murphy, D. J. (2004) Determination of accurate KI values for tight-binding enzyme inhibitors: an in silico study of experimental error and assay design, Analytical biochemistry 327, 61-67.

The target in assay [2] is CDK4/Cyclin D1 (Homo sapiens (Human), UniProt P11802). The assay can be described thus: CDK4/Cyclin D1 mobility shift assay. It counts as biochemical. Particulars: activated CDK4/Cyclin D1, 3.5 mM ATP, Morrison fit; read-out: CDK4D1 Ki. Here is the method:
The purpose CDK4/Cyclin D1 assay is to evaluate the inhibition (% inhibition, Kiapp and Ki values) in the presence of small molecule inhibitors by using a fluorescence based microfluidic mobility shift assay. […] The mobility shift assay electrophoretically separates the fluorescently labeled peptides (substrate and phosphorylated product) following the kinase reaction. Both substrate and product are measured and the ratio of these values is used to generate % Conversion of substrate to product by the LabChip EZ Reader.
The reaction was stopped after 195 minutes by the addition of 50 μL of 30 mM EDTA. Ki determinations were made from a plot of the fractional velocity as a function of inhibitor concentration fit to the Morrison equation with the enzyme concentration as a variable.
as §1

Structures are written as SMILES.

CDK4/Cyclin D1, sequence (P11802 whole entry): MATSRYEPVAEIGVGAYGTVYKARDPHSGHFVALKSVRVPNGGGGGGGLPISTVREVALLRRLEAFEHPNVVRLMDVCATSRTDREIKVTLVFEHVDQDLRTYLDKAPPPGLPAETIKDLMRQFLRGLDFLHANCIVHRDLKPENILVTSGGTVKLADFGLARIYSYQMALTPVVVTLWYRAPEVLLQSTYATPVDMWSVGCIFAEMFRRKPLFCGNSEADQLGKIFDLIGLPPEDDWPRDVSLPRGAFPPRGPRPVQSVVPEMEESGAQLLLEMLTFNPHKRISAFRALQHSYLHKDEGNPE
CDK4/Cyclin D1, sequence (P24385 whole entry partner): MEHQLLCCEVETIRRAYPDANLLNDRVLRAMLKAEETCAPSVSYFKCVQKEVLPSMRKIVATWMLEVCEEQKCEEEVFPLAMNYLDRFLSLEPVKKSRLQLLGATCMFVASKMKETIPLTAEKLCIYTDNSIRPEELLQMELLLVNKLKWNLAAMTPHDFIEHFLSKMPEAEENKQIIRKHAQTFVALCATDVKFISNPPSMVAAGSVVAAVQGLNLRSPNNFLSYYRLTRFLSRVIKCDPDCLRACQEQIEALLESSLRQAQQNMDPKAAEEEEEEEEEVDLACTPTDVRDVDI
CDK6/Cyclin D3, sequence (Q00534 whole entry): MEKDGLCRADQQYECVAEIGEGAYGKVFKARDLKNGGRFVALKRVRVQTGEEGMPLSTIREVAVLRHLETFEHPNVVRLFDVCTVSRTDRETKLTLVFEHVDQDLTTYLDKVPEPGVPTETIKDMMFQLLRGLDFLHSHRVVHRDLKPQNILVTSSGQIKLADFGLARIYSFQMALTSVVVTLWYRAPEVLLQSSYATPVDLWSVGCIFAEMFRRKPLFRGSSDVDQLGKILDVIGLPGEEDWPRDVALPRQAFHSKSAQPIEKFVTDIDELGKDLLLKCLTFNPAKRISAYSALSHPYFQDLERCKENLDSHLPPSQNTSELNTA
CDK6/Cyclin D3, sequence (P30281 whole entry partner): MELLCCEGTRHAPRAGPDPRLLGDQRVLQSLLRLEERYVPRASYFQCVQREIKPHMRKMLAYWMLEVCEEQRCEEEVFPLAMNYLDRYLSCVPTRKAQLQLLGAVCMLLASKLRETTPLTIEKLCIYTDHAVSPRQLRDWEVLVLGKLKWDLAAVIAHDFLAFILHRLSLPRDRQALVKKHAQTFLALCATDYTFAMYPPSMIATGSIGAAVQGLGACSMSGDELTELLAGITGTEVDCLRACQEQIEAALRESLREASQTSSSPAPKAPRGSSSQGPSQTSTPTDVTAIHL

As for `CC(C)n1nnc2ccc(-c3nc(N[C@@H]4CCN(S(C)(=O)=O)C[C@H]4O)ncc3Cl)cc21` [Example A84, (3R,4R)-4-({5-chloro-4-[1-(propan-2-yl)-1H-benzotriazol-6-yl]pyrimidin-2-yl}amino)-1-(methanesulfonyl)piperidin-3-ol], the inhibitory constant (Ki) is 30.3 nM in assay [1] and 6 nM in assay [2]. Taken in the same sequence, the figures for `CC(C)n1c([C@H](C)O)nc2c(F)cc(-c3cc(N[C@@H]4CCOC[C@H]4O)ncc3Cl)cc21` [Example D02, 1,5-anhydro-3-[(5-chloro-4-{4-fluoro-2-[(1S)-1-hydroxyethyl]-1-(propan-2-yl)-1H-benzimidazol-6-yl}pyridin-2-yl)amino]-2,3-dideoxy-D-threo-pentitol] were 9.3 nM and 1 nM. Taken in the same sequence, the figures for `Cc1nc2c(F)cc(-c3nc(N[C@@H]4CCNC[C@H]4O)ncc3F)cc2n1C(C)C` [Example A37, (3R,4R)-4-({5-fluoro-4-[4-fluoro-2-methyl-1-(propan-2-yl)-1H-benzimidazol-6-yl]pyrimidin-2-yl}amino)piperidin-3-ol] were 34.2 nM and 3.5 nM.

For `CC(C)n1c([C@@H](C)O)nc2c(F)cc(-c3nc(N[C@@H]4CCN(S(C)(=O)=O)C[C@@H]4O)ncc3Cl)cc21` (single isomer, unassigned) [Example F12], the Ki in assay [2] is 50 nM.

Consider `CCc1cnc(N[C@@H]2CCN(S(C)(=O)=O)C[C@H]2O)nc1-c1cc(F)c2nc(C)n(C(C)C)c2c1` [Example A70, (3R,4R)-4-({5-ethyl-4-[4-fluoro-2-methyl-1-(propan-2-yl)-1H-benzimidazol-6-yl]pyrimidin-2-yl}amino)-1-(methanesulfonyl)piperidin-3-ol], for which the Ki in assay [1] turned out to be 124 nM; in assay [2] it was 26.2 nM. Taken in the same sequence, the figures for `CC(C)n1c(C2CCO2)nc2c(F)cc(-c3nc(N[C@@H]4CCN(S(C)(=O)=O)C[C@H]4O)ncc3Cl)cc21` (single isomer, unassigned) [Example A32] were 7.1 nM and 0.9 nM. As for `CNC(=O)c1nc2c(F)cc(-c3nc(N[C@@H]4CCOC[C@H]4O)ncc3Cl)cc2n1C(C)C` [Example A34], the Ki in assay [1] was 102 nM; in assay [2], 11.1 nM. On the same counts, the results for `CC1(C)CNCc2nc3c(F)cc(-c4nc(N[C@@H]5CCOC[C@H]5O)ncc4Cl)cc3n21` [Example A46, 1,5-anhydro-3-{[5-chloro-4-(9-fluoro-4,4-dimethyl-1,2,3,4-tetrahydropyrazino[1,2-a]benzimidazol-7-yl)pyrimidin-2-yl]amino}-2,3-dideoxy-D-threo-pentitol] are 40.5 nM and 2.3 nM. For `CC(C)n1c([C@@H](C)O)nc2c(F)cc(-c3nc(N[C@H]4CCN(S(C)(=O)=O)C[C@@H]4O)ncc3Cl)cc21` [Example F13, (3S,4S)-4-[(5-chloro-4-{4-fluoro-2-[(1R)-1-hydroxyethyl]-1-(propan-2-yl)-1H-benzimidazol-6-yl}pyrimidin-2-yl)amino]-1-(methanesulfonyl)piperidin-3-ol], the inhibition constant Ki in assay [2] amounted to 11.6 nM.

Turning to `CNCC(=O)N1CC[C@@H](Nc2ncc(Cl)c(-c3cc(F)c4ncn(C(C)C)c4c3)n2)[C@H](O)C1` [Example F24, 1-[(3R,4R)-4-({5-chloro-4-[4-fluoro-1-(propan-2-yl)-1H-benzimidazol-6-yl]pyrimidin-2-yl}amino)-3-hydroxypiperidin-1-yl]-2-(methylamino)ethan-1-one], the inhibition constant Ki is 19.9 nM in assay [1] and 2.1 nM in assay [2]. `Cc1nc2ncc(-c3nc(N[C@@H]4CCN(S(C)(=O)=O)C[C@H]4O)ncc3Cl)cc2n1C(C)C` [Example A85, (3R,4R)-4-({5-chloro-4-[2-methyl-1-(propan-2-yl)-1H-imidazo[4,5-b]pyridin-6-yl]pyrimidin-2-yl}amino)-1-(methanesulfonyl)piperidin-3-ol]: the Ki in assay [1] is 62.8 nM; in assay [2], 9.9 nM.

As for `CC(C)n1cnc2c(F)cc(-c3nc(N[C@@H]4CCN(C(=O)C[C@H](N)C(F)(F)F)C[C@H]4O)ncc3Cl)cc21` [Example F31, (3S)-3-amino-1-[(3R,4R)-4-({5-chloro-4-[4-fluoro-1-(propan-2-yl)-1H-benzimidazol-6-yl]pyrimidin-2-yl}amino)-3-hydroxypiperidin-1-yl]-4,4,4-trifluorobutan-1-one], the figures for the inhibition constant (Ki) in assay [1] and in assay [2] were 23 nM and 2.4 nM, respectively. In the case of `CC1OCC(C)n2c1nc1c(F)cc(-c3nc(N[C@@H]4CCOC[C@H]4O)ncc3Cl)cc12` (single isomer, unassigned) [Example A21], the inhibition constant Ki in assay [1] turned out to be 136 nM. For `CC1CNCc2nc3c(F)cc(-c4nc(N[C@@H]5CCOC[C@H]5O)ncc4Cl)cc3n21` (single isomer, unassigned) [Example A56, 1,5-anhydro-3-{[5-chloro-4-(9-fluoro-4-methyl-1,2,3,4-tetrahydropyrazino[1,2-a]benzimidazol-7-yl)pyrimidin-2-yl]amino}-2,3-dideoxy-D-threo-pentitol], the figures for the Ki in assay [1] and in assay [2] were 9.6 nM and 1.3 nM, respectively. Taken in the same sequence, the figures for `CS(=O)(=O)N1CC[C@@H](Nc2ncc(Cl)c(-c3cc(F)c4nc(CO)n(C5CCC5)c4c3)n2)[C@H](O)C1` [Example A65, (3R,4R)-4-({5-chloro-4-[1-cyclobutyl-4-fluoro-2-(hydroxymethyl)-1H-benzimidazol-6-yl]pyrimidin-2-yl}amino)-1-(methanesulfonyl)piperidin-3-ol] were 3.5 nM and 0.6 nM. On the same counts, the results for `CC(C)n1c([C@@H](C)O)nc2c(F)cc(-c3nc(N[C@@H]4CCNC[C@H]4O)ncc3Cl)cc21` [Example A50, (3R,4R)-4-[(5-chloro-4-{4-fluoro-2-[(1R)-1-hydroxyethyl]-1-(propan-2-yl)-1H-benzimidazol-6-yl}pyrimidin-2-yl)amino]piperidin-3-ol] are 110 nM and 17 nM. On the same counts, the results for `CC(C)(O)c1nc2c(F)cc(-c3nc(N[C@@H]4CCOC[C@H]4O)ncc3Cl)cc2n1CC(F)F` [Example A67, 1,5-anhydro-3-({5-chloro-4-[1-(2,2-difluoroethyl)-4-fluoro-2-(2-hydroxypropan-2-yl)-1H-benzimidazol-6-yl]pyrimidin-2-yl}amino)-2,3-dideoxy-D-threo-pentitol] are 15.5 nM and 1.4 nM.

As for `CN1CCC(Nc2ncc(F)c(-c3cc(F)c4ncn(C(C)(C)C)c4c3)n2)CC1` [Example A03], the results for the inhibitory constant (Ki) in assay [1] and in assay [2] were 17.3 nM and 4 nM, respectively.

Turning to `OCc1nc2c(F)cc(-c3nc(N[C@@H]4CCOC[C@H]4O)ncc3Cl)cc2n1C1CC(F)(F)C1` [Example A66, 1,5-anhydro-3-({5-chloro-4-[1-(3,3-difluorocyclobutyl)-4-fluoro-2-(hydroxymethyl)-1H-benzimidazol-6-yl]pyrimidin-2-yl}amino)-2,3-dideoxy-D-threo-pentitol], the values for the Ki in assay [1] and in assay [2] were 54.7 nM and 12.1 nM, respectively. For the compound `CC(O)c1nc2c(F)cc(-c3nc(N[C@@H]4CCN(S(=O)(=O)C(F)F)C[C@H]4O)ncc3Cl)cc2n1C(C)C` (stereo partly drawn) [Example F09, (3R,4R)-4-({5-chloro-4-[4-fluoro-2-(1-hydroxyethyl)-1-(propan-2-yl)-1H-benzimidazol-6-yl]pyrimidin-2-yl}amino)-1-(difluoromethanesulfonyl)piperidin-3-ol], in assay [2], the Ki amounted to 0.6 nM. With `CC1OCC(C)n2c1nc1c(F)cc(-c3nc(N[C@@H]4CCOC[C@H]4O)ncc3Cl)cc12` (single isomer, unassigned) [Example A20], in assay [1], the inhibition constant Ki worked out at 20.4 nM.
